Test results published in patent US20040198789A1, “Lercanidipine/ARB/diuretic therapeutic combinations” (Recordati Ireland Limited, priority 2003, published 2004).
“And” between values parts separate entries of the source, which are not always exact repeats. Identical values can stand only once.

What was measured:
[1] = system: reperfusion-induced hypertension in uninephrectomized anesthetized rats; experiment: Model of acute angiotensin-mediated renal hypertension in anesthetized rats (SBP, DBP, HR); assay type: in vivo, rat
Method: Male Sprague-Dawley rats, weighing 250-300 g, were anaesthetized with pentobarbital sodium (35 mg/kg, i.p.) and placed on a thermic blanket. The temperature was maintained at 37° C. with a thermoregulator via a rectal probe. The animals were tracheotomized to facilitate spontaneous breathing. A polyethylene catheter was placed in the left jugular vein to allow for infusion of pentobarbital sodium to maintain anesthesia. The left femoral vein and artery were cannulated with polyethylene catheters to allow drugs administration and to monitor blood pressure, respectively.
Animals then underwent a left nephrectomy by excising the left kidney via a flank incision. The right kidney and renal vein, artery and ureter were then exposed via a right retroperitoneal incision, under a dissecting microscope. Silk threads were placed around both vessels and ureter. The cavity was then covered with Vaseline oil.
After 30-60 minutes of basal recordings of arterial blood pressure and heart rate the threads around the renal vessels and ureter were tied close to the renal hilum to induce complete renal ischemia of the right kidney. After 2 hours of ischemia, the threads were removed to allow renal reperfusion and urine output.
For irbesartan experiments and comparisons, control (vehicle) or drug (irbesartan (100 μg/kg), lercanidipine (7.5 μg/kg), or both lercanidipine (7.5 μg/kg) and irbesartan (100 μg/kg)) were administered intravenously at 5 min after reperfusion was begun.
Results were expressed as mean values ±S.E. (in the tables) and in percent change observed.
To evaluate the effects of drugs administration on blood pressure and heart rate within each group, two-way ANOVA and Dunnet's test were used (“within treatment”). To evaluate the statistical differences among the treatment groups, data are analyzed using a three-way ANOVA (analysis of variance) with repeated measures on factor time and pre-planned multiple comparisons. The analysis was performed using, for each treatment, delta values (log transformation). […] (“between treatments”).

[2] = system: reperfusion-induced hypertension in uninephrectomized anesthetized rats; experiment: as above; assay type: in vivo, rat; remark: listed apart in the source
[3] = cited from earlier work
isolated rat aorta = conditions: in vitro; even after repeated wash-out during 6 hours; cited from earlier work
[4] = following oral administration; cited from earlier work
[5] = between treatments, three-way ANOVA on delta values, lercanidipine 7.5 μg/kg, irbesartan 100 μg/kg i.v.
[6] = between treatments, three-way ANOVA on delta values, lercanidipine 7.5 μg/kg, olmesartan free acid 10 μg/kg i.v.
[7] = between treatments, three-way ANOVA on delta values, lercanidipine 10 μg/kg, valsartan 30 μg/kg i.v.
[8] = lercanidipine 7.5 μg/kg i.v., n=6, time 0 min, basal, pre-drug
[9] = lercanidipine 7.5 μg/kg i.v., n=6, time 120 min, end of ischemia, pre-drug
[10] = lercanidipine 7.5 μg/kg i.v., n=6, time 130 min, 5 min after drug
[11] = lercanidipine 7.5 μg/kg i.v., n=6, time 135 min, 10 min after drug
[12] = lercanidipine 7.5 μg/kg i.v., n=6, time 150 min, 25 min after drug
[13] = lercanidipine 7.5 μg/kg i.v., n=6, time 165 min, 40 min after drug
[14] = lercanidipine 7.5 μg/kg i.v., n=6, time 180 min, 55 min after drug
[15] = lercanidipine 7.5 μg/kg i.v., n=6, time […], 5 min reperfusion, pre-drug
[16] = lercanidipine 10 μg/kg i.v., n=5, time 0 min, basal, pre-drug
[17] = lercanidipine 10 μg/kg i.v., n=5, time 120 min, end of ischemia, pre-drug
[18] = lercanidipine 10 μg/kg i.v., n=5, time 130 min, 5 min after drug
[19] = lercanidipine 10 μg/kg i.v., n=5, time 135 min, 10 min after drug
[20] = lercanidipine 10 μg/kg i.v., n=5, time 150 min, 25 min after drug
[21] = lercanidipine 10 μg/kg i.v., n=5, time 165 min, 40 min after drug
[22] = lercanidipine 10 μg/kg i.v., n=5, time 180 min, 55 min after drug
[23] = lercanidipine 10 μg/kg i.v., n=5, time […], 5 min reperfusion, pre-drug
[24] = within treatment vs […], lercanidipine 10 μg/kg or valsartan 30 μg/kg i.v.

With `COC(=O)C1=C(C)NC(C)=C(C(=O)OC(C)(C)CN(C)CCC(c2ccccc2)c2ccccc2)C1c1cccc([N+](=O)[O-])c1` (stereo not drawn) [lercanidipine, methyl 1,1,N-trimethyl-N-(3,3-diphenylpropyl)-2-aminoethyl 1,4-dihydro-2,6-dimethyl-4-(3-nitrophenyl)pyridine-3,5-dicarboxylate] the “Diastolic blood pressure: general differences among groups: p vs Irbesartan” value [1, 5] was “ns”, the “Diastolic blood pressure: general differences among groups: p vs Vehicle” value [1, 5] was “p < 0.05” and the “Heart rate differences among groups: p vs Irbesartan” value [1, 5] was “p < 0.001”. For the same compound, the “Heart rate differences among groups: p vs Vehicle” value [1, 5] was “p < 0.01”, the “Systolic blood pressure differences among groups: p vs Irbesartan” value [1, 5] was “ns” and the “Systolic blood pressure differences among groups: p vs Vehicle” value [1, 5] was “ns”. For the same compound, the “Diastolic blood pressure differences among treatment groups: p vs Olmesartan” value [1, 6] was “ns”, the “Diastolic blood pressure differences among treatment groups: p vs Vehicle” value [1, 6] was “p < 0.05” and the “Heart rate differences among treatment groups: p vs Olmesartan” value [1, 6] was “p < 0.001”. The “Heart rate differences among treatment groups: p vs Vehicle” value [1, 6] was “p < 0.01”, the “Systolic blood pressure differences among treatment groups: p vs Olmesartan” value [1, 6] was “ns” and the “Systolic blood pressure differences among treatment groups: p vs Vehicle” value [1, 6] was “ns”. The “Diastolic blood pressure: general differences among groups: p vs Valsartan” value [1, 7] was “ns”, the “Heart rate: general differences among groups: p vs Valsartan” value [1, 7] was “p < 0.01” and the “Systolic blood pressure: general differences among groups: p vs Valsartan” value [1, 7] was “ns”. For the same compound, the DBP [1, 8] was 75.7 ± 1.7 mmHg, the HR [1, 8] was 383.3 ± 12.0 beats/min and the SBP [1, 8] was 120.7 ± 3.5 mmHg. It also gave a DBP [1, 9] of 63.3 ± 2.9 mmHg, an HR [1, 9] of 381.7 ± 7.5 beats/min and an SBP [1, 9] of 105.2 ± 5.3 mmHg. For the same compound, the HR [1, 10] was 434.2 ± 15.3 b beats/min, the SBP [1, 10] was 136.7 ± 7.4 mmHg and the HR [1, 11] was 426.7 ± 14.3 b beats/min. The SBP [1, 11] was 140.7 ± 7.1 mmHg and 140.7 ± 7.1b mmHg, the HR [1, 12] was 411.7 ± 12.8 b beats/min and the SBP [1, 12] was 143.2 ± 7.2 mmHg. The HR [1, 13] was 411.7 ± 15.6 b beats/min, the SBP [1, 13] was 144.5 ± 9.1 mmHg and the HR [1, 14] was 410.0 ± 18.3 b beats/min. For the same compound, the SBP [1, 14] was 136.8 ± 8.4 mmHg and 136.8 ± 8.4b mmHg, the DBP [1, 15] was 117.2 ± 4.4 mmHg and the HR [1, 15] was 346.7 ± 8.4 beats/min. The SBP [1, 15] was 160.7 ± 8.5 mmHg, the “effect on heart rate (in words)” value ([1]; lercanidipine 7.5 μg/kg, irbesartan 100 μg/kg i.v., alone or together) was “increase in heart rate” and the “effect on blood pressure (in words)” value ([1]; lercanidipine 7.5 μg/kg, irbesartan 100 μg/kg i.v., alone or together, 5 min after reperfusion) was “statistically significant decrease in both systolic and diastolic blood pressure”. The “effect on heart rate (in words)” value ([1]; lercanidipine 7.5 μg/kg, olmesartan free acid 10 μg/kg i.v., alone or together) was “increase in heart rate”, the DBP [1, 16] was 69.8 ± 4.1 mmHg and the HR [1, 16] was 350.0 ± 3.2 beats/min. It also gave an SBP [1, 16] of 133.8 ± 6.1 mmHg, a DBP [1, 17] of 64.6 ± 4.5 mmHg and an HR [1, 17] of 350.0 ± 3.5 beats/min. The SBP [1, 17] was 134.8 ± 6.2 mmHg, the DBP [1, 18] was 77.4 ± 4.1 b mmHg and the HR [1, 18] was 434.0 ± 27.9 b beats/min. It also gave an SBP [1, 18] of 149.2 ± 5.4 mmHg, a DBP [1, 19] of 77.8 ± 3.2 b mmHg and an HR [1, 19] of 438.0 ± 22.2 b beats/min. It also gave an SBP [1, 19] of 145.4 ± 5.0 b mmHg, a DBP [1, 20] of 76.4 ± 7.2 b mmHg and an HR [1, 20] of 425.0 ± 14.7 b beats/min. The SBP [1, 20] was 143.8 ± 5.5 b mmHg, the DBP [1, 21] was 78.4 ± 8.4 b mmHg and the HR [1, 21] was 423.0 ± 15.1 b beats/min. The SBP [1, 21] was 138.2 ± 8.6 b mmHg, the DBP [1, 22] was 76.2 ± 7.3 b mmHg and the HR [1, 22] was 421.0 ± 14.7 b beats/min. For the same compound, the SBP [1, 22] was 138.8 ± 4.9 b mmHg, the DBP [1, 23] was 105.6 ± 5.0 mmHg and the HR [1, 23] was 345.0 ± 5.5 beats/min. The SBP [1, 23] was 167.6 ± 4.0 mmHg, the “time of statistically significant decrease in diastolic blood pressure after administration” value ([1]; within treatment vs […], lercanidipine 7.5 μg/kg or olmesartan free acid 10 μg/kg i.v.) was 5 to 55 min and the “time of statistically significant decrease in systolic blood pressure after administration” value [1, 24] was 10 to 55 min. For the same compound, the “Diastolic blood pressure: general differences among groups: p vs Vehicle” value [2, 7] was “p < 0.01”, the “Heart rate: general differences among groups: p vs Vehicle” value [2, 7] was “p < 0.05” and the “Systolic blood pressure: general differences among groups: p vs Vehicle” value [2, 7] was “ns”. For the same compound, the “effect on heart rate (in words)” value ([2]; lercanidipine 10 μg/kg, valsartan 30 μg/kg i.v., alone or together) was “positive chronotropic effect”, the “time of statistically significant decrease in diastolic blood pressure after administration” value [2, 24] was 5 to 55 min and the “tachycardia reported as a side effect, patients” value ([3]; hypertensive patients on lercanidipine) was 0-9%. The “heart palpitations, patients reporting” value ([3]; patients administered lercanidipine) was 0-9%, the “isolated rat aorta response to high K+” value (isolated rat aorta) was “attenuated” and the “time of peak serum/plasma concentration” value [4] was 2 to 3 h.
